Data: US20250059164A1, “IRAK DEGRADERS AND USES THEREOF” (Kymera Therapeutics, Inc., priority 2023, published 2025)

Biological target: T1, IRAK4 (Homo sapiens, UniProt Q9NWZ3)
T1 construct: endogenous in cells; host or cells: OCI-LY10
T1 sequence (Q9NWZ3 1-460): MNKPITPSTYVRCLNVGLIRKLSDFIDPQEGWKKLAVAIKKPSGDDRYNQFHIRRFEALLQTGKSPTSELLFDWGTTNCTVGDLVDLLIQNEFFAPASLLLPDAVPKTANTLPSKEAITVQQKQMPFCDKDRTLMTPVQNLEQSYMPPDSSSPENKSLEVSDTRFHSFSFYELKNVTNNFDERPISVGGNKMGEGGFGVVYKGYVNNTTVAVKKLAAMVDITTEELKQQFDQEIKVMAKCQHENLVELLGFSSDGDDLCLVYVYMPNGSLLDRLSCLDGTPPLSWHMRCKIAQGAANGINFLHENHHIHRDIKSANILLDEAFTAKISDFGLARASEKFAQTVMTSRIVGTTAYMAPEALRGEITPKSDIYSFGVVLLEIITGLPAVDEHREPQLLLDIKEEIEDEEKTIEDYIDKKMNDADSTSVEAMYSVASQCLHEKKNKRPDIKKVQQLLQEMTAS
Assay: IRAK4 MSD degradation in OCI-LY10
Type: cell-based
Details: OCI-LY10 cells, 24 hrs, Meso Scale Discovery
Summary of the method: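 OCI-LY10 cells treated 4 to 24 hours at 37° C. with 8-dose 1:3 series, top 1 to 10 μM. IRAK4 in lysates quantified by MSD sandwich immunoassay (mouse capture, rabbit detection, SULFO-TAG anti-rabbit). DC50 from three-parameter logistic fit.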

SMILES | DC50 [nM]
O=C1CCC(c2ccc(N3CC(N4CCN([C@H]5CC[C@H](n6cc(NC(=O)c7cnn8ccc(N9CCCC9)nc78)c(C(F)F)n6)CC5)CC4)C3)cc2Cl)C(=O)N1 (stereo partly shown) [I-14] | < 10
O=C1CCC(Nc2cccc(N3CCN(C[C@H]4CC[C@H](n5cc6cc(NC(=O)c7cccc(C(F)(F)F)n7)ncc6n5)CC4)CC3)c2)C(=O)N1 (stereo partly shown) [I-15] | > 200
O=C1CCC(Nc2ccc(N3CC(CN4CCN(C[C@H]5CC[C@H](n6cc(NC(=O)c7cnn8ccc(N9C[C@H]%10C[C@@H]9CO%10)nc78)c(C(F)F)n6)CC5)CC4)C3)cc2Cl)C(=O)N1 (stereo partly shown) [I-16] | 10 to 100
Cc1nn(C2CCC(=O)NC2=O)c2cccc(N3CC(O)(CN4CCN(C[C@H]5CC[C@H](n6cc(NC(=O)c7cnn8ccc(N9C[C@H]%10C[C@@H]9CO%10)nc78)c(C(F)F)n6)CC5)CC4)C3)c12 (stereo partly shown) [I-19] | < 10
CN(C[C@H]1CC[C@H](n2cc(NC(=O)c3cnn4ccc(N5CCCC5)nc34)c(C(F)F)n2)CC1)[C@H]1CCN(c2cccc3c2n(C)c(=O)n3C2CCC(=O)NC2=O)C[C@@H]1F (stereo partly shown) [I-22] | < 10
CN(C[C@H]1CC[C@H](n2cc(NC(=O)c3cnn4ccc(N5CCCC5)nc34)c(C(F)F)c2)CC1)[C@@H]1CCN(c2cccc3c2n(C)c(=O)n3C2CCC(=O)NC2=O)C[C@@H]1F (stereo partly shown) [I-23] | < 10
C[C@H]1CN(c2ccn3ncc(C(=O)Nc4cn([C@H]5CC[C@H](CN(C)[C@H]6CCN(c7cccc8c7n(C)c(=O)n8C7CCC(=O)NC7=O)C[C@H]6F)CC5)nc4C(F)F)c3n2)CCO1 (stereo partly shown) [I-24] | < 10
C[C@H]1CN(c2ccn3ncc(C(=O)Nc4cn([C@H]5CC[C@H](CN(C)[C@H]6CCN(c7cccc8c7n(C)c(=O)n8C7CCC(=O)NC7=O)C[C@@H]6F)CC5)nc4C(F)F)c3n2)CCO1 (stereo partly shown) [I-25] | < 10
C[C@H]1CN(c2ccn3ncc(C(=O)Nc4cn([C@H]5CC[C@H](CN(C)C6CCN(c7cccc8c7n(C)c(=O)n8C7CCC(=O)NC7=O)C[C@@H]6F)CC5)nc4C(F)F)c3n2)CCO1 (stereo partly shown) [I-26] | < 10
CN(C[C@H]1CC[C@H](n2cc3cc(NC(=O)c4cccc(C(F)(F)F)n4)ccc3n2)CC1)[C@H]1CCN(c2cccc3c2n(C)c(=O)n3C2CCC(=O)NC2=O)C[C@H]1F (stereo partly shown) [I-31] | < 10
CN(C[C@H]1CC[C@H](n2cc3cc(NC(=O)c4cccc(C(F)(F)F)n4)ccc3n2)CC1)C1CCN(c2cccc3c2n(C)c(=O)n3C2CCC(=O)NC2=O)C[C@@H]1F (stereo partly shown) [I-32] | < 10
CN(C[C@H]1CC[C@H](n2cc3cc(NC(=O)c4cccc(C(F)(F)F)n4)ccc3n2)CC1)[C@H]1CCN(c2cccc3c2n(C)c(=O)n3C2CCC(=O)NC2=O)C[C@@H]1F (stereo partly shown) [I-33] | 10 to 100
CN(C[C@H]1CC[C@H](n2cc3cc(NC(=O)c4cccc(C(F)(F)F)n4)ncc3n2)CC1)[C@H]1CCN(c2cccc3c2n(C)c(=O)n3C2CCC(=O)NC2=O)C[C@H]1F (stereo partly shown) [I-34] | < 10
CN(C[C@H]1CC[C@H](n2cc3cc(NC(=O)c4cccc(C(F)(F)F)n4)ncc3n2)CC1)[C@@H]1CCN(c2cccc3c2n(C)c(=O)n3C2CCC(=O)NC2=O)C[C@@H]1F (stereo partly shown) [I-35] | < 10
CC(C)Oc1cc2nc([C@H]3CC[C@H](CN4CCC(c5ccc6c(c5)n(C)c(=O)n6C5CCC(=O)NC5=O)CC4)CC3)cn2cc1C(=O)Nc1cccn([C@H]2C[C@H]2F)c1=O (stereo partly shown) [I-37] | < 10
O=C1CCC(c2ccc(N3CC(CO[C@@H]4CCN(C[C@H]5CC[C@H](n6cc(NC(=O)c7cnn8ccc(N9C[C@H]%10C[C@@H]9CO%10)nc78)c(C(F)F)n6)CC5)C[C@@H]4F)C3)cc2Cl)C(=O)N1 (stereo partly shown) [I-38] | < 10
Cn1c(NC(=O)c2cccc(C(F)(F)F)n2)cc2cn([C@H]3CC[C@H](CN4CC[C@@H](c5cccc6c5n(C)c(=O)n6C5CCC(=O)NC5=O)C(F)(F)C4)CC3)nc2c1=O (stereo partly shown) [I-39] | > 200

SMILES | DC50 [nM]
CN(C[C@H]1CC[C@H](n2cc(NC(=O)c3cnn4ccc(N5CCCC5)nc34)c(C(F)F)n2)CC1)[C@@H]1CCN(c2cccc3c2n(C)c(=O)n3C2CCC(=O)NC2=O)C[C@H]1F (stereo partly shown) [I-40] | < 10
Cc1nn(C2CCC(=O)NC2=O)c2cccc(N3CCN(C[C@@H]4COC5(C4)CN(C[C@H]4CC[C@H](n6cc(NC(=O)c7cnn8ccc(N9C[C@H]%10C[C@@H]9CO%10)nc78)c(C(F)F)n6)CC4)C5)CC3)c12 (stereo partly shown) [I-42] | < 10
Cn1c(NC(=O)c2cccc(C(F)(F)F)n2)cc2cn([C@H]3CC[C@H](CN4CC[C@H](c5cccc6c5n(C)c(=O)n6C5CCC(=O)NC5=O)[C@@H](F)C4)CC3)nc2c1=O (stereo partly shown) [I-43] | > 200
COc1nc(NC(=O)c2cccc(C(F)F)n2)cc2cn([C@H]3CC[C@H](CN4CC[C@H](c5cccc6c5n(C)c(=O)n6C5CCC(=O)NC5=O)C(F)(F)C4)CC3)nc12 (stereo partly shown) [I-44] | 10 to 100
Cc1nn(C2CCC(=O)NC2=O)c2cccc(N3CC(CN4CCN(C[C@H]5CC[C@H](n6cc(NC(=O)c7cnn8ccc(N9C[C@H]%10C[C@@H]9CO%10)nc78)c(C(F)F)n6)CC5)CC4)C3)c12 (stereo partly shown) [I-45] | < 10
COc1cc2nn([C@H]3CC[C@H](CN4CCN(c5cccc6c5c(C)nn6C5CCC(=O)NC5=O)CC4)CC3)cc2cc1NC(=O)c1cncc(C#N)c1 (stereo partly shown) [I-48] | 10 to 100
COc1cc2nn([C@H]3CC[C@H](CN4CCC5(CC4)CCN(c4cccc6c4c(C)nn6C4CCC(=O)NC4=O)CC5)CC3)cc2cc1NC(=O)c1cncc(C#N)c1 (stereo partly shown) [I-49] | 10 to 100
COc1cc2nn([C@H]3CC[C@H](CN4CCC5(CC4)CCN(c4cccc6c4c(C)nn6C4CCC(=O)NC4=O)CC5)CC3)cc2cc1NC(=O)c1cncc(C)c1 (stereo partly shown) [I-50] | 10 to 100
C[C@H]1CN(c2ccn3ncc(C(=O)Nc4cn([C@H]5CC[C@H](CN(C)[C@H]6CCN(c7cccc8c7n(C)c(=O)n8C7CCC(=O)NC7=O)C[C@H]6F)CC5)nc4C(F)F)c3n2)CCO1 (stereo partly shown) [I-51] | < 10
Cc1nn(C2CCC(=O)NC2=O)c2cccc([C@H]3CCN(C[C@H]4CC[C@H](n5cc6cc(NC(=O)c7cccc(C(F)(F)F)n7)ncc6n5)CC4)C[C@@H]3F)c12 (stereo partly shown) [I-53] | 10 to 100
Cc1nn(C2CCC(=O)NC2=O)c2cccc(N3CC(N4CCN([C@H]5CC[C@H](n6cc(NC(=O)c7cnn8ccc(N9C[C@H]%10C[C@@H]9CO%10)nc78)c(C(F)F)n6)CC5)CC4)C3)c12 (stereo partly shown) [I-54] | < 10
O=C1CCC(c2ccc(N3CC(CO[C@H]4CCN(C[C@H]5CC[C@H](n6cc(NC(=O)c7cnn8ccc(N9C[C@H]%10C[C@@H]9CO%10)nc78)c(C(F)F)n6)CC5)C[C@@H]4F)C3)cc2Cl)C(=O)N1 (stereo partly shown) [I-55] | 10 to 100
Cc1nn(C2CCC(=O)NC2=O)c2cccc(N3CC(CO[C@@H]4CCN(C[C@H]5CC[C@H](n6cc(NC(=O)c7cnn8ccc(N9C[C@H]%10C[C@@H]9CO%10)nc78)c(C(F)F)n6)CC5)C[C@@H]4F)C3)c12 (stereo partly shown) [I-56] | < 10
Cc1nn(C2CCC(=O)NC2=O)c2cccc(N3CC(N4CCN([C@H]5CC[C@@H](n6cc(NC(=O)c7cnn8ccc(N9C[C@H]%10C[C@@H]9CO%10)nc78)c(C(F)F)n6)CC5)CC4)C3)c12 (stereo partly shown) [I-57] | > 200
CN(C[C@H]1CC[C@H](n2cc3cc(NC(=O)c4cccc(C(F)(F)F)n4)c(C#N)cc3n2)CC1)[C@@H]1CCN(c2cccc3c2n(C)c(=O)n3C2CCC(=O)NC2=O)C[C@H]1F (stereo partly shown) [I-58] | < 10
O=C1CCC(Nc2ccc(N3CC(CN4CCN(C[C@H]5CC[C@H](n6cc(NC(=O)c7cnn8ccc(N9C[C@H]%10C[C@@H]9CO%10)nc78)c(C(F)F)n6)CC5)CC4)C3)cc2)C(=O)N1 (stereo partly shown) [I-61] | 10 to 100
CN(c1cccc(N2CCN(C[C@H]3CC[C@H](n4cc5cc(NC(=O)c6cccc(C(F)(F)F)n6)ncc5n4)CC3)CC2)c1)C1CCC(=O)NC1=O (stereo partly shown) [I-62] | 100 to 200
